Reference: publication PMC6540907, “The nuclear export inhibitor aminoratjadone is a potent effector in extracellular-targeted drug conjugates” (Chemical Science, 2019)
Like-named read-outs stand apart in the source and are kept apart here. Values belong to the compound of their own block, whether it stands above or below them. No end group written: not given here.

Key:
A-549 = test: cells; assay type: cell-based, human; settings: Homo sapiens
Experimental: (§1) Biological evaluation of the compounds […]
(§2) serial dilutions of the test compound were given to 120 µL of suspended cells (50.000/mL) in wells of 96-well plates. After 5 days of incubation growth inhibition (IC50) was determined using an MTT assay.9
(§3) Table S1:Medium conditions for different cell types.
(§4) Cell type Medium Additives
(§5) L-929 (DSMZ ACC 2) DME medium (high glucose) (Gibco) 10% fetal calf serum (Gibco) SKOV-3 DSMZ ATCC HTB Mc Coys-Medium (Gibco) 10% fetal calf serum (Gibco) […]
(§6) A549 (DSMZ ACC 107) DME medium (high glucose) (Gibco) 10% fetal calf serum (Gibco)

KB-3.1 [1] = test: cells; assay type: cell-based, human
Experimental: as §1, §2, §3, §4, §5, §6

MCF-7 = test: cells; assay type: cell-based, human; settings: Homo sapiens
Experimental: as §1, §2, §3, §4, §5, §6

SK-OV-3 = test: cells; assay type: cell-based, human; settings: Homo sapiens
Experimental: as §1, §2, §3, §4, §5, §6

L-929 [2] = test: Cell proliferation assay (MTT, 5 days); assay type: cell-based, murine; settings: Mus musculus
Experimental: as §1, §2, §3, §4, §5
A549 (DSMZ ACC 107) DME medium (high glucose) (Gibco) 10% fetal calf serum (Gibco) KB 3.1 (DSMZ ACC 158) DME medium (high glucose) (Gibco) 10% fetal calf serum (Gibco) Ratjadone Compound Antiproliferative activity IC50 [nM]
KB-3.1: human cervix carcinoma, KB-V1: multi-drug-resistant human cervix carcinoma, K-562: human chronic myelogenous leukemia cell, PC-3: human prostate carcinoma, L-929: murine fibroblast
Figure S8: Structures of Ratjadone A-D and their antiproliferative activity (IC50 values in nM). Data published by Köster et al.10

KB-3.1 [3] = tested on: KB-3.1; parameters: method as in Köster et al.10; settings: KB-3.1 human cervix carcinoma; ref Köster et al.10; read-out: Antiproliferative activity IC50; cited from earlier work
KB-V1 = tested on: KB-V1; parameters: method as in Köster et al.10; settings: KB-V1 multi-drug-resistant human cervix carcinoma; ref Köster et al.10; read-out: Antiproliferative activity IC50; cited from earlier work
K-562 = tested on: K-562; parameters: method as in Köster et al.10; settings: K-562 human chronic myelogenous leukemia; ref Köster et al.10; read-out: Antiproliferative activity IC50; cited from earlier work
PC-3 = tested on: PC-3; parameters: method as in Köster et al.10; settings: PC-3 human prostate carcinoma; ref Köster et al.10; read-out: Antiproliferative activity IC50; cited from earlier work
L-929 [4] = tested on: L-929; parameters: method as in Köster et al.10; settings: L-929 murine fibroblast; ref Köster et al.10; read-out: Antiproliferative activity IC50; cited from earlier work
CRM1 = CRM1 (Homo sapiens, UniProt O14980); test: Nuclear export inhibition, fluorescent translocation biosensor in recombinant HeLa cells; assay type: cell-based; parameters: This cellular assay uses HeLa cells that express a recombinant fusion protein; endogenous in cells; host or cells: HeLa cells stably expressing the NLS-GST-GFP-RevNES translocation biosensor (HeLaRevBio); settings: 1 h incubation
[5] = tested on: panel of cancer cell lines; test: Antiproliferative activity of drug-free LHRH carriers in a panel of cancer cell lines; assay type: cell-based, human; settings: KB-3.1, A-549, SK-OV-3, MCF-7
From the text: Luteinizing hormone releasing hormone (LHRH)-based carriers were selected for this purpose, because it has been shown that several cancer cell types overexpress receptors for LHRH, a peptide-hormone involved in regulation of the sex glands of males and females.[25],[26],[29],[82]–[84] We synthesized three novel derivatives of LHRH that bear azido-ornithine as […] amino acid of the decapeptide core structure instead of the glycine residue found in the natural peptide (Fig. 8). As the importance of the newly introduced stereocenter was unclear, both diastereoisomers L-Orn-N3-LHRH and D-Orn-N3-LHRH were prepared. An additional analog, D-Orn-N3-Gose, was based on the synthetic LHRH analogue goserelin, that was reported to have higher affinity for the LHRH-receptor[85] due to a hydrazine carboxamide in the C-terminal position. […] Next, their antiproliferative activities were evaluated in a panel of cancer cell lines, in order to assess a contribution of the drug-free targeting moiety to bioactivity. […] The conjugates were evaluated for their antiproliferative activity against the LHRH-receptor-positive lung cancer cell line A-549 (Table 3). […]
serial dilutions of the test compound were given to 120 µL of suspended cells (50.000/mL) in wells of 96-well plates. After 5 days of incubation growth inhibition (IC50) was determined using an MTT assay.9 […]

[6] = Plasma stability assay (HPLC-MS/MS); assay type: in vitro ADME; settings: 37 °C, pH 7.4, two hours, 250 µM
Experimental: We exposed three selected conjugates, FA-7-Val-Cit-PABA-16R-aminoratjadone, FA-SS-16R-aminoratjadone and FA-3b-16R-aminoratjadone, to human plasma and quantified their relative amount at different time points by HPLC-MS/MS analysis (Fig. 9).
FA-7-Val-Cit-pABA-16R-Aminoratjadone (PK008a), FA-SS-16R-Aminoratjadone (PK026a) and FA-3b-L-Aminoratjadone (PK058a) were dissolved in DMSO were added to human plasma (pH 7.4, 37°C) to yield a final concentration of 10 µg/ml. In addition, procaine, propoxycaine and procainamide (dissolved in DMSO) were added to human plasma (pH 7.4, 37°C) to yield a final concentration of 250 µM. Procaine and propoxycaine served as positive controls as they are known to be unstable in mouse plasma. Procainamide served as negative control as it is known to be stable in mouse plasma. The samples were incubated for 0 min, 30 min, 60 min, 90 min and 120 min at 37°C. At each time point 10 µl of the respective sample was extracted with 50 µl acetonitrile containing an internal standard for 15 min on ice. […] All samples were analyzed via HPLC-MS using an Agilent 1290 Inifinity II HPLC system coupled to an AB Sciex QTrap 6500plus mass spectrometer. […]
MRM. All compo unds were detected in positive scan mode. Peak areas of each compound and of the internal standard were analyzed using MultiQuant 3.0 software (AB Sciex). Peaks were quantified using […]

[7] = parameters: method as in ref 86 = [86]; Hartmann D. A. Curr. Protoc. Pharmacol. 2002 19 7.6.1 7.6.8; settings: cited from earlier work

Sequence of CRM1 (O14980 whole entry, the tested form may be a part): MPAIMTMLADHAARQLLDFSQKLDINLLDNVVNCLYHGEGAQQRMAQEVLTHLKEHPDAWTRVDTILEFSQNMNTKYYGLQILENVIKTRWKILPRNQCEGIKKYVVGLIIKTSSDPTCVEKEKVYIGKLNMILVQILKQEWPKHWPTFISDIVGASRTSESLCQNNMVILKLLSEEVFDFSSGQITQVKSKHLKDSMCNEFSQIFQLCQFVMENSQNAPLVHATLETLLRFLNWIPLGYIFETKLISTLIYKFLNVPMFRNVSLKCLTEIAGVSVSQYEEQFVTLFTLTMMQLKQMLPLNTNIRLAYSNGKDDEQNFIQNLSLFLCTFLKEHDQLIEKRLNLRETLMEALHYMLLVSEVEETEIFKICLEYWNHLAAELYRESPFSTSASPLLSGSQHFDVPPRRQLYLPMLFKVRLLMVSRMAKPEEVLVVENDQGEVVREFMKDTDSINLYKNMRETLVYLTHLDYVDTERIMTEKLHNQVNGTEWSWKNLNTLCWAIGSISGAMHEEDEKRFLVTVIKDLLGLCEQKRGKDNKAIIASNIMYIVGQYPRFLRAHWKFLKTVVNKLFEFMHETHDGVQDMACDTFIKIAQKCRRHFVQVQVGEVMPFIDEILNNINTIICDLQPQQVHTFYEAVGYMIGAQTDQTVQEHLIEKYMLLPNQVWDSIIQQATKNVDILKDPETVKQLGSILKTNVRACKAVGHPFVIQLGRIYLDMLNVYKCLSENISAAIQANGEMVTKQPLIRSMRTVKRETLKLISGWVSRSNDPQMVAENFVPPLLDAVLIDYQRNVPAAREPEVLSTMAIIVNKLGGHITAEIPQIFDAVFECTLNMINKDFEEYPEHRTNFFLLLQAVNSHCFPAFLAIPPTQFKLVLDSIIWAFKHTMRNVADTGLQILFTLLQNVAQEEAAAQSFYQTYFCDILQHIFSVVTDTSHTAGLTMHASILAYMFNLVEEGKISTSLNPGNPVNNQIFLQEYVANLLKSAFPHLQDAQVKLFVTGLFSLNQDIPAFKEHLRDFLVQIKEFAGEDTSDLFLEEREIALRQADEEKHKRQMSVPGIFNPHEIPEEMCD

Compound: CC=CC1OC(C(O)C=CC=C(C)CC(C)C=C(C)C=CC2CC=CC(=O)O2)CC(O)C1C (single isomer, unassigned; (+)) [Compound 1, (+)-ratjadone A, reference compound]
- IC50 (A-549; A549, A-549 human lung carcinoma, read-out: Antiproliferative activity IC50): 0.15 nM
- IC50 (KB-3.1 [1]; KB 3-1, KB-3.1 human cervix carcinoma, read-out: Antiproliferative activity IC50): 0.46 nM
- IC50 (MCF-7; MCF7, MCF-7 human breast carcinoma, read-out: Antiproliferative activity IC50): 0.11 nM
- IC50 (SK-OV-3; SK-OV-3, SK-OV-3 human ovarian carcinoma, read-out: Antiproliferative activity IC50): 0.24 nM
- IC50 (L-929 [2]; L929, L-929 murine fibroblast, read-out: Antiproliferative activity IC50): 0.68 nM
- IC50 (KB-3.1 [3]): 0.3 nM
- IC50 (KB-V1): 0.15 nM
- IC50 (K-562): 0.3 nM
- IC50 (PC-3): 0.08 nM
- IC50 (L-929 [4]): 0.15 nM
- IC50 (CRM1; HeLa cells expressing translocation biosensor, read-out: nuclear export inhibition IC50): 1.2 nM

Compound: C/C=C/[C@@H]1O[C@H]([C@@H](O)/C=C/C=C/C[C@@H](C)/C=C(C)\C=C\[C@H]2CC=CC(=O)O2)C[C@@H](O)[C@@H]1C [Compound 2, Ratjadone B]
- IC50 (KB-3.1 [3]): 1 nM
- IC50 (KB-V1): 0.15 nM
- IC50 (K-562): 0.5 nM
- IC50 (PC-3): 0.15 nM
- IC50 (L-929 [4]): 0.35 nM

Compound: C/C=C/[C@@H]1O[C@H]([C@@H](O)/C=C/C=C/C[C@@H](C)/C=C(\C=C\[C@H]2CC=CC(=O)O2)CC)C[C@@H](O)[C@@H]1C [Compound 3, Ratjadone C]
- IC50 (KB-3.1 [3]): 0.35 nM
- IC50 (KB-V1): 0.08 nM
- IC50 (K-562): 0.15 nM
- IC50 (PC-3): 0.08 nM
- IC50 (L-929 [4]): 0.2 nM

Compound: C/C=C/[C@@H]1O[C@H](C/C=C/C=C/C[C@@H](C)/C=C(\C=C\[C@H]2CC=CC(=O)O2)CC)C[C@@H](O)[C@@H]1C [Compound 4, Ratjadone D]
- IC50 (KB-3.1 [3]): 2 nM
- IC50 (KB-V1): 0.3 nM
- IC50 (K-562): 0.5 nM
- IC50 (PC-3): 0.4 nM
- IC50 (L-929 [4]): 1 nM

Compound: C#CCCOC(=O)N[C@H](/C=C/C=C(\C)C[C@@H](C)/C=C(C)\C=C\[C@H]1CC=CC(=O)O1)[C@@H]1C[C@@H](O)[C@H](C)[C@H](/C=C/C)O1 [Compound 21]
- IC50 (A-549; A549, read-out: Antiproliferative activity IC50, A-549 human lung carcinoma): 1.25 nM
- IC50 (KB-3.1 [1]; Homo sapiens, KB 3-1, read-out: Antiproliferative activity IC50, KB-3.1 human cervix carcinoma): 0.47 nM
- IC50 (MCF-7; MCF7, read-out: Antiproliferative activity IC50, MCF-7 human breast carcinoma): 0.27 nM
- IC50 (SK-OV-3; SK-OV-3, read-out: Antiproliferative activity IC50): 0.45 nM
- IC50 (L-929 [2]; L929, read-out: Antiproliferative activity IC50, L-929 murine fibroblast): 4.5 nM
- IC50 (CRM1; nuclear export inhibition IC50, HeLa cells expressing translocation biosensor): 46.1 nM

Compound: CC(C)C[C@H](NC(=O)[C@H](CCCN=[N+]=[N-])NC(=O)[C@H](Cc1ccc(O)cc1)NC(=O)[C@H](CO)NC(=O)[C@H](Cc1c[nH]c2ccccc12)NC(=O)[C@H](Cc1c[nH]cn1)NC(=O)[C@@H]1CCC(=O)N1)C(=O)N[C@@H](CCCNC(=N)N)C(=O)N1CCC[C@H]1C(=O)NCC(N)=O [L-Orn-N3-LHRH]
- antiproliferative activity of the drug-free targeting moiety [5]: no antiproliferative activity

- degraded in human plasma [6]: more than 90%
Compound: CCN(CC)CCOC(=O)c1ccc(N)cc1 [procain]
- stability in plasma (known) [7]: degrade rapidly in plasma

- degraded in human plasma [6]: more than 90%
Compound: CCCOc1cc(N)ccc1C(=O)OCCN(CC)CC [propoxycain]
- stability in plasma (known) [7]: degrade rapidly in plasma

Compound: LHRH: luteinizing hormone releasing hormone, peptide hormone (QHWSYGLRPG-NH2; not fully specified (residue 1); ends and bridges not checked; UniProt P01148 24-33, looked up) [reference compound]
- antiproliferative activity of the drug-free targeting moiety [5]: no antiproliferative activity
